Counter-ions that a name gives are not always drawn.
Biological target: T1, PI3Kα H1047R (T47D cells) (Homo sapiens, UniProt P42336, H1047R)
T1 construct: endogenous in cells; host or cells: T47D cells
Assay: PI3Kα cellular assay: pAKT HTRF in T47D cells after EGF stimulation
Format: cell-based
Settings: for IC50: T47D cells (PI3Kα H1047R), pAKT S473 HTRF
Outline: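 T47D cells (PIK3CA H1047R) serum-starved 16 h, then treated 1 h at 37 °C with compound (10,000 nM top, 3-fold steps to 0.5 nM). After 10 min stimulation with 20 ng/mL EGF, cells were lysed and pAKT measured by HTRF.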

[1] = 1 hr compound, 20 ng/ml EGF 10 min
[2] = selectivity T47D (H1047R) over SKBR3 (WT), pAKT HTRF
[3] = selectivity of T47D (H1047R) over SKBR3 (WT) pAKT IC50

T1 sequence (P42336 whole entry H1047R): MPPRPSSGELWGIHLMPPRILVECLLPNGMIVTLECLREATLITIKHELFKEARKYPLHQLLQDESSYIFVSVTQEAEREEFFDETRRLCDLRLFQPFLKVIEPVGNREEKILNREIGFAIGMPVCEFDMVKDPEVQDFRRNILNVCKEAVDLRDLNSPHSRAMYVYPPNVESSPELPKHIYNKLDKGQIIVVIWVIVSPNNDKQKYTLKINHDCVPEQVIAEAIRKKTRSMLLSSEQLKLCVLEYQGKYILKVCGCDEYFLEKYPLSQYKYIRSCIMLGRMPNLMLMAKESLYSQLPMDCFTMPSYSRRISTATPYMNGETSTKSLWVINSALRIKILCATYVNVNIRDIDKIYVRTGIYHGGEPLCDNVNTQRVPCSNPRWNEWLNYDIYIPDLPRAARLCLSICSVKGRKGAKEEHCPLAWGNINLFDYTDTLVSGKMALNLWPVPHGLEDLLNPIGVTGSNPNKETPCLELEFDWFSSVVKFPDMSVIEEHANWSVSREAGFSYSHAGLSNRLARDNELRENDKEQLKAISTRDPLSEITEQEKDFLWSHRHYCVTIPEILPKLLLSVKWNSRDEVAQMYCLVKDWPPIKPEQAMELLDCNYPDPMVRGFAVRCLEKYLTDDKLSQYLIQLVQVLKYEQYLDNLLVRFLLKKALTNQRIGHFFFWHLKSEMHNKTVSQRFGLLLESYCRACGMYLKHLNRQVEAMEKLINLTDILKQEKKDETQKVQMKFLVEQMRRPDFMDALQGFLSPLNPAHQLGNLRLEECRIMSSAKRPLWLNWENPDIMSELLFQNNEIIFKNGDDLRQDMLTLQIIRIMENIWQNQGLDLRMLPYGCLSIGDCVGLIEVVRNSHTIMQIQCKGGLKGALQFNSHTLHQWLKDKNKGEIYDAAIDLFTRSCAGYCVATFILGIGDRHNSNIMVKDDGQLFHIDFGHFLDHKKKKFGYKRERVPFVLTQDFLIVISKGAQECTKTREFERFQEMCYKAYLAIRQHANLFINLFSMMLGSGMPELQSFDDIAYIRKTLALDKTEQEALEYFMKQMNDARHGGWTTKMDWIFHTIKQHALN
T1 sequence (P27986 whole entry partner): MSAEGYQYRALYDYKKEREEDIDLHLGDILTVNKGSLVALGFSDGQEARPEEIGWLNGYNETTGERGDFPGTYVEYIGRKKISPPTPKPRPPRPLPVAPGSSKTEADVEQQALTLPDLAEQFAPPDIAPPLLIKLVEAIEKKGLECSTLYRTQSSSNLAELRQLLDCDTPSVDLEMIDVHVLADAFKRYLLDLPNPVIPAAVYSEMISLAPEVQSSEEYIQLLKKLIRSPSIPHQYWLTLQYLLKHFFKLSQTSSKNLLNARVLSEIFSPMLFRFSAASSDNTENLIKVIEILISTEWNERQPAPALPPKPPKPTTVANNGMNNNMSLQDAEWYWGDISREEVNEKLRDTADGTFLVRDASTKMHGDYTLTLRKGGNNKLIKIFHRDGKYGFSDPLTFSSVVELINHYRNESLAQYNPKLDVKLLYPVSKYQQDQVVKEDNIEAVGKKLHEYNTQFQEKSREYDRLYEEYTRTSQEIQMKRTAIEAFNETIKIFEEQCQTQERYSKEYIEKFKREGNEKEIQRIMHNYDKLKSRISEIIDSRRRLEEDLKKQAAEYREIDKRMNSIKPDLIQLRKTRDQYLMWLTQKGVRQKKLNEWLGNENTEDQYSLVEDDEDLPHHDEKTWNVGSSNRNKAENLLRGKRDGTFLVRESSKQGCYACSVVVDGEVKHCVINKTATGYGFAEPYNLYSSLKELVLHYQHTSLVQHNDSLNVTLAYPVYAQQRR

Row | Structure (SMILES) | IC50 [1] [µM] | T47D pAKT S473 HTRF IC50 (H1047R): T47D (H1047R) selectivity over SKBR3 (WT) [2] | IC50 (EGF stimulation) [µM] | T47D pAKT S473 HTRF IC50 (H1047R): T47D (H1047R) selectivity over SKBR3 (WT) [3]
1 | CCN1CCN(Cc2ccccc2-c2cc(=O)n3cc(C)cc(C(C)Nc4ccccc4C(=O)O)c3n2)CC1 (stereo not drawn) [Compound 229] | > 2 | C (C denotes ≤5-fold) |  | 
2 | Cc1cc([C@@H](C)Nc2ccccc2C(=O)O)c2nc(N3CCN(C)CC3)cc(=O)n2c1 [Compound 394] | > 2 | C (C denotes ≤5-fold) |  | 
3 | COc1ccc(C(=O)O)c(NC(C)c2cc(C)cn3c(=O)cc(N4CCOCC4)nc23)c1 (stereo not drawn) [Compound 323] | > 2 | C (C denotes ≤5-fold) |  | 
4 | Cc1cc([C@@H](C)Nc2ccccc2C(=O)O)c2nc(-c3ccc4c(C)nn(C)c4c3)c(C)c(=O)n2c1 [Compound 927] |  |  | < 0.1 | A (A denotes >20-fold)
5 | Cc1cc([C@H](C)Nc2ccccc2C(=O)O)c2nc(-c3cccnc3)c(C)c(=O)n2c1 [Compound 950] |  |  | > 2 | C (C denotes ≤5-fold)
6 | Cc1cc([C@@H](C)Nc2ccccc2-c2ccnnc2)c2nc(-c3cccnc3)c(C)c(=O)n2c1 [Compound 1144] |  | C (C denotes ≤5-fold) | > 2 | 
7 | Cc1cc(C(C)Nc2ccccc2C(=O)O)c2nc(-c3ccc(CN4CCN(C)CC4)cc3)cc(=O)n2c1 (stereo not drawn) [Compound 308] | > 2 | C (C denotes ≤5-fold) |  | 
8 | Cc1cc([C@H](C)Nc2ccccc2C(N)=O)c2nc(-c3ccncc3)cc(=O)n2c1 (single isomer, unassigned) [Compound 440] | 0.5 to 2 | B (B denotes 20-fold≥value>5-fold) |  | 
9 | Cc1cc(C(C)Nc2ccccc2C(=O)O)c2nc(-c3ccc(S(N)(=O)=O)cc3)cc(=O)n2c1 (stereo not drawn) [Compound 302] | 0.5 to 2 | B (B denotes 20-fold≥value>5-fold) |  | 
10 | Cc1cc([C@@H](C)Nc2ccccc2C(=O)O)c2nc(N3C[C@@H]4CC(F)(F)C[C@@H]4C3)cc(=O)n2c1 (single isomer, unassigned) [Compound 582] | > 2 | C (C denotes ≤5-fold) |  | 
11 | Cc1cc([C@@H](C)Nc2ccccc2S(N)(=O)=O)c2nc(C3CCN(CC(C)C)CC3)c(C)c(=O)n2c1 [Compound 1287] |  | C (C denotes ≤5-fold) |  | 
12 | Cc1cc([C@H](C)Nc2ccccc2C(=O)O)c2nc(N3CCC(C)(C)CC3)cc(=O)n2c1 [Compound 728] |  |  | > 2 | C (C denotes ≤5-fold)
13 | Cc1cc([C@@H](C)Nc2ccccc2C(=O)O)c2nc(-c3ccc4c(C)nn(C)c4c3)cc(=O)n2c1 [Compound 819] |  |  | < 0.1 | A (A denotes >20-fold)
14 | Cc1cc([C@@H](C)Nc2ccccc2C(=O)O)c2nc(-c3cnc(C)c(Cl)c3)c(C)c(=O)n2c1 [Compound 1052] |  |  | 0.1 to 0.5 | A (A denotes >20-fold)
15 | Cc1cc([C@H](C)N[C@@H]2CCCC[C@@H]2C(=O)O)c2nc(N3CCOCC3)cc(=O)n2c1 [Compound 906] |  |  | > 2 | C (C denotes ≤5-fold)
16 | Cc1cc([C@@H](C)Nc2ccccc2C(=O)O)c2nc(-c3ccc4c(c3)CC(F)(F)C4)cc(=O)n2c1 [Compound 822] |  |  | < 0.1 | A (A denotes >20-fold)
17 | Cc1cc(C(C)Nc2cccc(CO)c2C(=O)O)c2nc(-c3ccc4c(c3)c(C)nn4C)cc(=O)n2c1 (stereo not drawn) [Compound 933] |  |  | > 2 | C (C denotes ≤5-fold)
18 | CC(Nc1ccccc1C(=O)O)c1cc(C(F)(F)F)cn2c(=O)cc(N3Cc4ccccc4C3)nc12 (stereo not drawn) [Compound 922] |  |  | < 0.1 | A (A denotes >20-fold)
19 | Cc1cc([C@H](C)Nc2ccccc2S(N)(=O)=O)c2nc([C@H]3CCCOC3)c(C)c(=O)n2c1 [Compound 1286] |  | B (B denotes 20-fold≥value>5-fold) | 0.5 to 2 | 
20 | Cc1cc([C@@H](C)Nc2ccccc2C(=O)O)c2nc(-c3ccc4c(c(N)nn4C)c3C)cc(=O)n2c1 [Compound 702] |  |  | 0.5 to 2 | B (B denotes 20-fold≥value>5-fold)
21 | CC(Nc1ccccc1C(=O)O)c1cc(C(N)=O)cn2c(=O)cc(N3CCOCC3)nc12 (stereo not drawn) [Compound 276] | < 0.1 | C (C denotes ≤5-fold) |  | 
22 | CC#Cc1nc2c([C@@H](C)Nc3ccccc3C(=O)O)cc(C)cn2c(=O)c1C [Compound 1205] |  | C (C denotes ≤5-fold) | > 2 | 

Row | Structure (SMILES) | IC50 [1] [µM] | T47D pAKT S473 HTRF IC50 (H1047R): T47D (H1047R) selectivity over SKBR3 (WT) [2] | IC50 (EGF stimulation) [µM] | T47D pAKT S473 HTRF IC50 (H1047R): T47D (H1047R) selectivity over SKBR3 (WT) [3]
23 | Cc1cc(C(C)Nc2ccccc2C(=O)O)c2nc(N3C[C@H]4C[C@@H](C5CCN(S(C)(=O)=O)CC5)C[C@H]4C3)cc(=O)n2c1 (stereo partly drawn) [Compound 843] |  |  |  | B (B denotes 20-fold≥value>5-fold)
24 | Cc1cc([C@@H](C)Nc2ccccc2C(=O)O)c2nc(C3CCOCC3)c(C)c(=O)n2c1 [Compound 1055] |  |  | 0.1 to 0.5 | A (A denotes >20-fold)
25 | C#Cc1ccc(-c2nc3c(C(C)Nc4ccccc4C(=O)O)cc(C)cn3c(=O)c2C)cn1 (stereo not drawn) [Compound 1191] |  | A (A denotes >20-fold) | < 0.1 | 
26 | CC(=O)Nc1nn(C)c2ccc(-c3cc(=O)n4cc(C)cc(C(C)Nc5ccccc5C(=O)O)c4n3)cc12 (stereo not drawn) [Compound 792] |  |  | > 2 | C (C denotes ≤5-fold)
27 | Cc1cc(C(C)Nc2ccccc2S(N)(=O)=O)c2nc(-c3ccnc(C4CC4)c3)c(C)c(=O)n2c1 (stereo not drawn) [Compound 1096] |  | A (A denotes >20-fold) | < 0.1 | 
28 | Cc1cc([C@@H](C)Nc2cc(F)cc(F)c2)c2nc(N3CCOCC3)cc(=O)n2c1 [Compound 263] | 0.5 to 2 | C (C denotes ≤5-fold) |  | 
29 | Cc1cc([C@@H](C)Nc2ccccc2C(=O)O)c2nc(-c3cccc(F)c3)c(C(C)C)c(=O)n2c1 [Compound 1277] |  | A (A denotes >20-fold) | 0.1 to 0.5 | 
30 | Cc1cc([C@H](C)Nc2ccccc2S(N)(=O)=O)c2nc(-c3cnc4c(c3)c(C)nn4C)c(C)c(=O)n2c1 [Compound 988] |  |  | > 2 | C (C denotes ≤5-fold)
31 | Cc1cc(C(C)Nc2ccccc2C(=O)O)c2nc(-c3ccc4c(c3)CC(F)(F)C4)cc(=O)n2c1 (stereo not drawn) [Compound 821] |  |  | 0.1 to 0.5 | A (A denotes >20-fold)
32 | Cc1cc(C(C)Nc2ccccc2C(=O)O)c2nc(-c3ccc(F)cc3)c(C#N)c(=O)n2c1 (stereo not drawn) [Compound 1260] |  | A (A denotes >20-fold) | < 0.1 | 
33 | Cc1cc(C(C)Nc2cccc(F)c2C(=O)O)c2nc(N3CCOCC3)cc(=O)n2c1 (stereo not drawn) [Compound 287] | > 2 | C (C denotes ≤5-fold) |  | 
34 | Cc1cc(C(C)Nc2ccccc2C(=O)O)c2nc(-c3cccnc3)cc(=O)n2c1 (stereo not drawn) [Compound 416, 2-((1-(7-methyl-4-oxo-2-(pyridin-3-yl)-4H-pyrido[1,2-a]pyrimidin-9-yl)ethyl)amino)benzoic acid trifluoroacetate] | 0.1 to 0.5 | A (A denotes >20-fold) |  | 
35 | Cc1cc([C@H](C)Nc2ccccc2S(N)(=O)=O)c2nc([C@@H]3CCCN(CC(F)F)C3)c(C)c(=O)n2c1 [Compound 1311] |  | C (C denotes ≤5-fold) | > 2 | 
36 | Cc1cc([C@H](C)Nc2ccccc2C(=O)O)c2nc(-c3ccc4c(c3)c(C#N)nn4C3CC3)c(C)c(=O)n2c1 [Compound 1049] |  |  | > 2 | C (C denotes ≤5-fold)
37 | Cc1cc([C@H](C)Nc2ccccc2C(=O)O)c2nc(OC3CCOCC3)c(C)c(=O)n2c1 (single isomer, unassigned) [Compound 1371] |  | A (A denotes >20-fold) | < 0.1 | 
38 | CC#Cc1nc2c([C@H](C)Nc3ccccc3C(=O)O)cc(C)cn2c(=O)c1C [Compound 1206] |  | B (B denotes 20-fold≥value>5-fold) | 0.5 to 2 | 
39 | Cc1cc(C(C)Nc2ccccc2C(=O)O)c2nc(-n3cnc4cc(O)ccc43)cc(=O)n2c1 (stereo not drawn) [Compound 773] |  |  | 0.5 to 2 | B (B denotes 20-fold≥value>5-fold)
40 | Cc1cc([C@@H](C)Nc2ccccc2-n2nn[nH]c2=O)c2nc(N3CCOCC3)cc(=O)n2c1 [Compound 343] | > 2 | C (C denotes ≤5-fold) |  | 
41 | Cc1cc([C@@H](C)Nc2ccccc2S(N)(=O)=O)c2nc(-c3ccc(C4CCOCC4)nc3)c(C)c(=O)n2c1 [Compound 1294] |  | B (B denotes 20-fold≥value>5-fold) | 0.5 to 2 | 
42 | Cc1cc([C@@H](C)Nc2ccccc2C(=O)O)c2nc(N3C[C@@H](C)C(F)(F)[C@@H](C)C3)cc(=O)n2c1 (single isomer, unassigned) [Compound 711] |  |  | < 0.1 | A (A denotes >20-fold)
43 | Cc1cc([C@@H](C)Oc2ccccc2C(=O)O)c2nc(-c3cccc(F)c3)c(C)c(=O)n2c1 [Compound 1372] |  | C (C denotes ≤5-fold) | > 2 | 
